# From PMC7617869, “Molecular glues that inhibit deubiquitylase activity and inflammatory signaling” (Nature Structural & Molecular Biology, 2025)
# “And” between values parts separate entries of the source, which are not always exact repeats. Equal entries are not always repeated.
# Assays:
# Format in all cases: cell-based, human
# [1] = test system: NF-κB pathway in THP-1 cells; assay: THP-1 NF-κB pathway SEAP reporter, lipopolysaccharide stimulation; conditions: LPS + compound, three replicates
# Description: THP-1 in vitro experiments
# THP-1-DualTM cells (InvivoGen), derived from a human monocytic cell line, isolated from a patient with acute monocytic leukaemia, were cultured as per manufacturer’s guidance. Cells were seeded at 1x10^6 cells/mL in RPMI1640 media containing 10% fetal bovine serum (FBS), 1% penicillin-streptomycin (PS) (Gibco Laboratories) with DMSO (0.1%) (control) or in media containing JMS-175- […]
# ng/mL) (Merck Life Science), ODN 2216 (1 µM) (Miltenyi Biotec), or Poly:IC (1 µg/mL) (InvivoGen).
# Tofacitinib (Cambridge Biosciences) at 0.4 µM was used for comparison against a known JAK inhibitor.
# Cells were centrifuged at 300 g for 5 minutes. Supernatant was removed and subjected to simultaneous study of the NF -κB pathway, by monitoring the activity of secreted alkaline phosphatase reporter (SEAP), and the IRF pathway, by assessing the activity o f a secreted Lucia luciferase using QUANTI - Blue ™ Solution and QUANTI -Luc™ 4 Lucia/Gaussia (InvivoGen), respectively, as per manufacturer’s instructions. Pelleted cells were used for FACS analysis using IFNα/β R1 APC-conjugated antibody or isotype control (Biotechne, FAB245A and IC002A), or unstained staining procedure with and without Zombie GreenTM (Biolegend). Samples were analysed using CytoFlex LX (Beckman) (50,000 live cells per condition). Median fluorescence intensity for APC channel gated on single cell live cells was analysed and compared as a percentage to control (no stimulation condition). […]
# [2] = test system: ISG expression in MCF10A Cas9 cells expressing BRCC45 WT; assay: MCF10A BRCC45 WT ISG expression (RT–qPCR); parameters: scale not given here; conditions: BRCC45 KO+ BRCC45 WT; replicate values
# Description: (§1) Supplementary Protocols 1. Experimental procedures for cell biology experiments. […]
# (§2) Media supplements including human insulin solution (Santa Cruz Biotechnology, #sc-360248), cholera toxin from vibrio (Sigma Aldrich, #C8052-2MG), recombinant human EGF (PeproTech, #AF-100-15-100µg), hydrocortisone (Sigma-Aldrich, #H-0888) were used to grow MCF10A cells. The 4–12% Bis-Tris SDS-PAGE gels, cell culture media, horse serum and other materials for tissue culture were purchased from Invitrogen. LipoD293 (SigmaGen, #SL100668) was used for all the transfections to generate knock out cell lines.
# (§3) Immortalised breast epithelial cell line MCF10A were cultured in 10 cm plates with Dulbecco’s Modified Eagle Medium (DMEM) + F-12 (1:1) supplemented with 5% horse serum, 100 ng/mL cholera toxin, 10 […]
# (§4) Real-time quantitative PCR
# (§5) 1x10^5 MCF10A cells were cultured as described above and seeded into 6 well plates. Cells were left to reach ultra-confluence. Once confluent, cells were washed with PBS and starved for 30 minutes in 2 mL DMEM + F-12 (1:1) supplemented with 1% horse serum. After 30 minutes cells were pre-treated with either DMSO (0.1%) (Control and IFN only) or BRISC inhibitor (2.5 µM) for 15 minutes. After 15 minutes, hIFN2α (75 ng/mL) was added to the media and mixed. Cells were treated for 4 hours. Cells were washed with ice cold PBS and scraped with cell scrapers into 350 µL RNAlater buffer and RNA […]
# (§6) #79254). Isolated RNA was quantified using a Nanodrop spectrophotometer. RNA was converted into cDNA and the complementary DNA was used for real-time quantitative PCR analysis of expression of interferon stimulated genes (ISG15, IFIT1, IFIT2, IFITM1, CXCL10 and RNA18S) using an Applied Biosystems Quantstudio 6 RT-PCR system. All experiments were carried out in triplicate.
# [3] = test system: ISG expression in MCF10A Cas9 cells expressing BRCC45 R137A; assay: MCF10A BRCC45 R137A ISG expression (RT–qPCR); parameters: scale not given here; conditions: BRCC45 KO+ BRCC45 R137A; replicate values
# Description: as §1, §2, §3, §4, §5, §6
# [4] = test system: CXCL10 secretion in healthy PBMCs; assay: Healthy PBMC CXCL10 ELISA, IFNα2-stimulated
# Description: PBMCs in vitro experiments
# Peripheral blood mononuclear cells (PBMCs) from healthy and SSc donors were separated using density gradient method (Leucosep™, Greiner Bio-One International) from EDTA anticoagulated peripheral blood; isolated cells were washed twice by PBS. PBMCs were then incubated in RPMI1640 […]
# For healthy PBMCs, cells were stimulated with 20 ng/mL of IFN (+/- compounds or DMSO). For SSc PBMCs, cells were in basal conditions with no additional IFN stimulation. Cells were centrifuged at 300 g for 10 minutes. Supernatant was removed and subjected to R&D Systems DY266 Human CXCL10/IP-10 DuoSet ELISA (Biotechne) in duplicates, according to manufacturer’s guidance. Concentration of CXCL10 was determined according to a 4-parameter
SMILES,NF-κB SEAP reporter signal [1],ISG expression (Fig. 5b) [2],ISG expression (Fig. 5c) [2],ISG expression (Fig. 5e) [2],ISG expression (Fig. 5f) [2],ISG expression (Fig. 5d) [2],ISG expression (Fig. 5b) [3],ISG expression (Fig. 5c) [3],ISG expression (Fig. 5e) [3],ISG expression (Fig. 5f) [3],ISG expression (Fig. 5d) [3],"CXCL10, healthy donor PBMCs (Fig. 6c) ([4]; Healthy donor HC1)","CXCL10, healthy donor PBMCs (Fig. 6c) ([4]; Healthy donor HC2)","CXCL10, healthy donor PBMCs (Fig. 6c) ([4]; Healthy donor HC3)"
O=C(NC1CCNCC1)c1nn(C(=O)c2c(Cl)cccc2Cl)cc1NC(=O)c1c(Cl)cccc1Cl [JMS-175-2],1.156 and 1.103 and 1.152,0.5319 and 0.5863 and 0.5604 and 0.6288 and 0.7746,0.5095 and 0.5499 and 0.6199 and 0.6187 and 0.6726,0.6564 and 0.7321 and 0.7949 and 0.5784 and 0.6638,0.7407 and 0.6852 and 0.6633 and 0.7235 and 0.5173,0.4933 and 0.4932 and 0.5473 and 0.4528 and 0.6627,1.361 and 1.11 and 1.149 and 1.082 and 0.8783,1.325 and 1.127 and 1.329 and 1.145 and 0.8628,1.156 and 1.163 and 1.393 and 1.185 and 1.136,1.041 and 1.139 and 1.224 and 1.412 and 1.207,1.23 and 1.313 and 1.719 and 1.523 and 0.8668,63.2851,45.1027,43.5189
Cn1cc(NC(=O)c2c(Cl)cccc2Cl)c(C(=O)NC2CCN(C(=O)c3c(Cl)cccc3Cl)CC2)n1 [AP-5-145],1.142 and 1.08 and 1.107,0.8808 and 1 and 0.9871 and 1.027 and 0.974,0.8403 and 0.921 and 1.057 and 1.089 and 1.101,0.7343 and 0.7561 and 0.8094 and 1.106 and 1.138,0.7564 and 0.7183 and 0.7628 and 1.249 and 0.9766,1.013 and 1.064 and 1.1762 and 1.007 and 0.9192,1.156 and 0.9393 and 0.8616 and 0.9356 and 0.9314,1.216 and 0.9273 and 0.916 and 0.9352 and 0.7895,1.091 and 0.9001 and 0.8733 and 0.8458 and 0.7765,1.662 and 0.8736 and 0.8819 and 0.8534 and 1.058,1.117 and 1.15 and 0.9989 and 1.074 and 0.7573,89.7308,123.351,106.128
O=C(NC1C2CNCC21)c1nn(C(=O)c2c(Cl)cccc2Cl)cc1NC(=O)c1c(Cl)cccc1Cl (stereo not drawn) [FX-171-C],1.133 and 1.071 and 1.161,0.4458 and 0.5019 and 0.5077 and 0.4274 and 0.4977,0.4481 and 0.428 and 0.4516 and 0.3326 and 0.4475,0.653 and 0.6751 and 0.6387 and 0.3593 and 0.4619,0.6515 and 0.6181 and 0.6111 and 0.3694 and 0.504,0.3965 and 0.3703 and 0.3895 and 0.4078 and 0.5134,1.886 and 0.9791 and 0.9889 and 0.9654 and 2.3346,1.805 and 0.9044 and 1.045 and 1.083 and 2.1,1.992 and 0.8788 and 0.9319 and 1.019 and 2.187,1.937 and 0.8462 and 0.8933 and 0.87 and 0.6063,2.039 and 1.092 and 1.112 and 1.2514 and 2.244,77.343,68.1378,64.5563
